The structures appear in SMILES notation.

For 6 compounds, minimal effective concentration results are on record in EP2135515A1, “Taste enhancing compound” (FIRMENICH SA, priority 2008, dated 2009).

The nature of the first assay: Half-tongue test: recognition threshold for velvety mouthcoating, trained sensory panel. The format is in vivo. Conditions: Homo sapiens, pH 4.5, read-out: Mouthfeel threshold. As for the experimental part: The threshold at which the compound delivered a noticeable velvety mouthcoating was evaluated as follows:
The isolated compound was suspended in water, and, after removing the volatiles in high vacuum (<5 mPa), was freeze-dried twice.
The freeze-dried sample was taken up in water, adjusted to pH 4.5 using hydrochloric acid, and stepwise diluted (1+1) with water. This is referred to herein as "sample 1". A second sample was prepared comprising water (Evian®) adjusted to pH 4.5 using hydrochloric acid. This is referred to herein as "sample 2". Both samples were stored at room temperature.
Twelve panelists with no history of known taste disorders were trained to evaluate the taste of aqueous solutions (2 mL each) of the following standard taste compounds in bottled water (pH 4.5) by using a triangle test as described in the literature (20): sucrose (50 mmol/L) for sweet taste, lactic acid (20 mmol/L) for sour taste, NaCl (20 mmol/L) for salty taste, caffeine (1 mmol/L) for bitter taste, sodium glutamate (3 mmol/L) for umami taste. For the puckering astringency and the velvety astringent, mouth-drying oral sensation, the panel was trained by using gallustannic acid (0.05%) and quercetin-3-O-β-D-glucopyranoside (0.01 mmol/L), respectively, using the half-tongue test (see Scharbert S., Holzmann N., Hofmann T. Identification of the astringent taste compounds in black tea infusions by combining instrumental analysis and human bioresponse. J. Agric. Food Chem. 2004, 52, 3498-3508).
Samples 1 and 2 were presented in order of increasing concentrations to the panel. The panelists, wearing noseclips, were asked to determine the dilution at which a difference was detectable between the samples using the "half-tongue" test. The test was performed three times. When the panelist selected correctly, the same concentration was presented again besides one blank as a proof for the correctness of the data. The geometric mean of the last and the second last concentration was calculated and taken as the individual recognition threshold. The values between individuals and between five separate sessions differed by not more than plus or minus one dilution step.
For comparison with the mouthfeel-enhancing threshold of known ingredients in vanilla extract, the half-tongue test was repeated using vanillic acid, p-hydroxybenzoic acid, guaiacol, p-hydroxybenzaldehyde and vanillin respectively instead of sample 1.
On to `O=Cc1ccc(O)cc1` [p-hydroxybenzaldehyde], for which the minimal effective concentration worked out at 205 µM.

Staying with this assay, now noted: Homo sapiens; half-tongue test, in water pH 4.5, twelve trained panelists wearing noseclips; geometric mean of last and second last concentration; read-out: Mouthfeel threshold.
For `COc1ccccc1O` [Guaiacol], the minimal effective concentration worked out at 240 µM.

For the compound `COc1cc(-c2cc(OC)c(O)c(-c3ccc(O)c(OC)c3)c2)ccc1O` [Sample 1, triguaiacol], the minimal effective concentration turned out to be 0.01 µM.

For `COc1cc(C(=O)O)ccc1O` [Vanillic acid], the minimal effective concentration came to 320 µM.

`COc1cc(C=O)ccc1O` [Vanillin]: the minimal effective concentration amounted to 150 µM.

Turning to `O=C(O)c1ccc(O)cc1` [p-hydroxybenzoic acid], the minimal effective concentration stood at 250 µM.
